Source: PubChem BioAssay AID1615 (Sanford-Burnham Center for Chemical Genomics, 2009)
≈ marks a conversion by molar mass, not a printed value.

Test system: aqueous buffer solubility, UV absorbance, 18 h equilibrium
Experiment: equilibrium solubility at several pH values – biophysical, UV absorbance, pH 5.0, 6.2, 7.4, ADME assay, late-stage follow-up (AID 1615)
Details: at 300 µM, stronger effect = higher value

## C=CCn1c(SCC(=O)c2ccc(O)c(O)c2)nnc1-c1ccccc1OC
  solubility: 18 µg/mL (≈ 45.3 µM)
Measured here: solubility at pH 5.0
  solubility: 8.4 µg/mL (≈ 21.1 µM)
Measured here: solubility at pH 6.2
  solubility: 8.4 µg/mL (≈ 21.1 µM)
